Source: US10294234B2, “HIV inhibitor compounds” (priority 2017, dated 2019)
Like-named read-outs stand apart in the source and are kept apart here.

Columns and labels:
[1] = in vivo
Protocol: Pharmacokinetic Profiling Dog PK
Each dosing group consisted of three non-naïve male beagle dogs. At dosing, the animals weighed between 9 to 12 kg. The animals were fasted overnight prior to dose administration and up to four hours after dosing. The test article was administered by intravenous infusion over 30-minutes. The rate of infusion was adjusted according to the body weight of each animal to deliver a dose of 0.5 or 1.0 mg/kg. For the oral dosing group, the test article was administered by oral gavage at a dose volume of 2 mL/kg.
Serial venous blood samples (approximately 1.0 mL each) were collected at predose and 0.25, 0.48, 0.58, 0.75, 1.0, 1.5, 2, 4, 8, 12 and 24 hours post dose from each animal for the IV dosing group; blood samples were collected at predose, 0.25, 0.50, 1, 2 4, 6, 8,12 and 24 hours post dose for the oral dosing group. The blood samples were collected into Vacutainer™ tubes containing EDTA-K2 as the anti-coagulant and were immediately placed on wet ice pending centrifugation for plasma. An LC/MS/MS method was used to measure the concentration of test compound in plasma. Non-compartmental pharmacokinetic analysis was performed on the plasma concentration-time data. VSS=apparent volume of distribution, t1/2=half life, F=oral bioavailability.

[2] = in vivo; settings: for Vd / RAT IV CL / RAT IV T1/2: iv
In short: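 Male SD rats (n=3/group, 0.27–0.32 kg), fasted overnight, given 0.5 or 1.0 mg/kg by 30-min IV infusion, or by oral gavage. Serial plasma samples (EDTA-K2) over 24 h measured by LC/MS/MS; non-compartmental PK analysis.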

[3] = tested on: HIV-1 (IIIB) in MT-4 cells; experiment: MT-4 HIV assay; type: cell-based; settings: Human immunodeficiency virus 1, MT4, 120 h; HIV-1 (IIIB), MT-4 cells, 5 days, Cell Titer Glo; read-out: EC50
In short: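 MT-4 cells infected with HIV-1 IIIB (1:250 stock dilution) were incubated with 1:3 serially diluted compounds in RPMI with 10% FBS for 5 days at 37 °C. Cell Titer Glo luminescence was the readout. Plates included mock-infected wells, no-drug wells and 5 uM AZT controls.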

[4] = In short: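 Dog, rat and human liver microsomes (0.5 mg/mL) with NADPH-regenerating cofactor; test compound 1 uM, duplicates. Timepoints 2, 12, 25, 45, 65 min; protein removed by centrifugation, supernatant analysed by LC/MS/MS. Clint from t1/2.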
[5] = 3H Human Predicted Clearance Assay (tritiated analogs); type: in vitro ADME; settings: human, 1 uM
Protocol: 3H Human Predicted Clearance Assay:
For certain compounds, tritiated analogs (H^3) were prepared to further determined their human predicted clearance with increased resolution. Those studies were performed as described above using the tritiated analogs. Data from those compounds is found in Table 2 below and reported in FIG. 1 (note ATV and DRV were not tritiated).

[6] = tested on: HIV-1 (IIIB) in MT-4 cells; experiment: MT-4 HIV High Resolution Antiviral Assay; type: cell-based; settings: for EC50: Human immunodeficiency virus 1, IIIB, MT4; for EC95: calculated from Hill coefficient and EC50; for Hill-coefficient: Graph Pad Prism
Protocol: Compounds were tested in a high-throughput 384-well assay format for their ability to inhibit the replication of HIV-1 (IIIB) in MT-4 cells. Compounds were serially diluted (1:3) in DMSO on 384-well polypropylene plates and further diluted 200-fold into complete RPMI media (10% FBS, 1% P/S) using the Biotek Micro Flow and Agilent ECHO acoustic dispenser. Each plate contained up to 8 test compounds, with negative (No Drug Control) and 5 uM AZT positive controls. MT-4 cells were pre-infected with 10 uL of either RPMI (mock-infected) or a fresh 1:250 dilution of an HIV-1 (IIIB) concentrated virus stock. Infected and uninfected MT-4 cells were further diluted in complete RPMI media and added to each plate using a Micro Flow dispenser. After 5 days incubation in a humidified and temperature controlled incubator (37° C.), Cell Titer Glo (Promega) was added to the assay plates to quantify the amount of luciferase. EC50 and CC50 values were defined as the compound concentration that causes a 50% decrease in luminescence signal, and were calculated using a sigmoidal dose-response model to generate curve fits.
(§1) MT-4 HIV High Resolution Antiviral Assay
(§2) Assay protocol is identical to that described for the MT-4 antiviral assay with the following changes: Each drug is run in 2 series of quadruplicates with different starting concentrations for each series and 19 1.5 fold dilutions performed across the plate. […] Data is analyzed and Hill coefficients determined in Graph Pad Prism (San Diego, Calif.). EC95s were determined by the formula EC95=(19)^I/hill coefficient×EC50. HD values were determined for certain compounds and reported in Table 5 below as an illustrative example.

[7] = molecular target: recombinant HIV protease (Human immunodeficiency virus type 1 group M subtype B, UniProt P04585); experiment: biochemical
Protocol: Inhibitor potency was measured using an enzymatic assay with a fluorogenic readout. […] After a 20-minute pre-incubation, the enzymatic reaction was initiated by the addition of the fluorogenic substrate (2-aminobenzoyl)Thr-Ile-Nle-(p-nitro)Phe-Gln-Arg (Bachem) to a final concentration of 40 μM. The total volume of the assay solution was 100 µL. The reaction was measured over 20 minutes on a Tecan Infinite M1000 plate reader using an excitation wavelength of 320 nm and a detection wavelength of 420 nm. The slopes of the progress curves were the measure of reaction rates.

[8] = tested on: HIV-1 (IIIB) in MT-4 cells; experiment: Protein adjusted EC95 (high resolution antiviral assay with equilibrium dialysis plasma protein binding); type: cell-based; settings: EC95 adjusted for plasma protein binding (10% plasma vs cell culture media)
Protocol: as §1, §2
Equilibrium Dialysis Assay
Pooled plasma (from at least 3 males and 3 females) was from Bioreclamation IVT. Sodium EDTA was used as the anticoagulant. 10% plasma was diluted in 0.133M phosphate buffer consisted of 1.5% (w/v) Sodium EDTA.
RPMI cell culture media consisted 10% FBS was provided by biology department, Gilead Sciences, Inc.
Plasma Protein Binding Assay:
Studies were conducted in duplicate or triplicate using a Dianorm Equilibrium Dialyser (Harvard Apparatus, Holliston Mass.) with each cell consisting of a semipermeable membrane (2.4 cm working diameter) separating two 1 mL PTFE half-cells (Weder HG, Schildknecht J, Kesselring P. A new equilibrium dialyzing system. American Laboratory. 1971; 10: 15-21). Prior to the study, the dialysis membrane was soaked for approximately one hour in 0.133 M phosphate buffer, pH 7.4. 10% plasma and cell culture media spiked with 1 μM compound (1 mL) were placed into opposite sides of the assembled dialysis cells and the dialysis cells were then rotated slowly in a 37° C. water bath. After the equilibration period, matrix-containing samples from both sides were drained into pre-weighed polypropylene tubes. Post-dialysis 10% plasma samples were transferred into centrifuge tubes containing 1 mL of blank cell culture media. Post-dialysis cell culture media samples were transferred into centrifuge tubes containing 1 mL of blank 10% plasma. All samples weights were measured and recorded for calculations of volume shift and recovery. […]

[9] = male beagle dogs, IV infusion over 30 minutes, 0.5 or 1.0 mg/kg
[10] = male, beagle, dog, in vivo, po, 2 mg/kg
[11] = male, SD, rat, in vivo, po, 2.5 mg/kg

Compound	DOG IV CL ([1]; dog, in vivo, iv) [mL/min/kg]	DOG IV T1/2 [1, 9] [h]	Vd ([1]; male, beagle, dog, in vivo, iv) [L/kg]	DOG PO F [1, 10] [%]	Vd ([2]; male, SD, rat, in vivo) [L/kg]	RAT PO F [2, 11] [%]	RAT IV CL ([2]; rat, in vivo) [mL/min/kg]	RAT IV T1/2 ([2]; rat, in vivo) [h]	EC50 [3] [nM]	Human Pred Cl. ([4]; human, microsomes) [L/H/kg]	Rat. Pred. Cl. ([4]; rat, microsomes) [L/H/kg]	3H Human Predicted Cl. [5]	EC95 [6] [nM]	Hill-coefficient ([6]; high resolution assay)	Protein Adjusted EC95 [8] [nM]	also measured
COC(=O)N[C@H](C(=O)N[C@@H](Cc1ccc(C#Cc2cnc(N3CC4CCC(C3)N4C3COC3)nc2)cc1)[C@@H](O)CN(Cc1c(F)cc(-c2ccn(C(F)F)n2)cc1F)NC(=O)[C@@H](NC(=O)OC)C(C)(C)C(F)(F)F)C(C)(C)C(F)(F)F [Example 171, Methyl ((5S,8S,9S,14S)-11-(4-(1-(difluoromethyl)-1H-pyrazol-3-yl)-2,6-difluorobenzyl)-16,16,16-trifluoro-9-hydroxy-15,15-dimethyl-8-(4-((2-(8-(oxetan-3-yl)-3,8-diazabicyclo[3.2.1]octan-3-yl)pyrimidin-5-yl)ethynyl)benzyl)-3,6,13-trioxo-5-(1,1,1-trifluoro-2-methylpropan-2-yl)-2-oxa-4,7,11,12-tetraazahexadecan-14-yl)carbamate]	4.33	13.4	3.12	23	8.11	39	5.33	22.5	4.59	<0.11	0.215	0.02	–	–	–	Dog. Pred. Cl. ([4]; dog, microsomes): 0.27 L/H/kg
COC(=O)N[C@H](C(=O)N[C@@H](Cc1ccc(C#Cc2ccc(N3CC4CCC(C3)N4C3COC3)nc2)cc1)[C@@H](O)CN(Cc1c(F)cc(-c2ccn(C3CC3)n2)cc1F)NC(=O)[C@@H](NC(=O)OC)C(C)(C)C(F)(F)F)C(C)(C)C(F)(F)F [Example 170, Methyl ((5S,8S,9S,14S)-11-(4-(1-cyclopropyl-1H-pyrazol-3-yl)-2,6-difluorobenzyl)-16,16,16-trifluoro-9-hydroxy-15,15-dimethyl-8-(4-((6-(8-(oxetan-3-yl)-3,8-diazabicyclo [3.2.1]octan-3-yl)pyridin-3-yl)ethynyl)benzyl)-3,6,13-trioxo-5-(1,1,1-trifluoro-2-methylpropan-2-yl)-2-oxa-4,7,11,12-tetraazahexadecan-14-yl)carbamate]	23.2	7.62	4.35	2.45	3.32	36.6	5.83	9.38	4.13	<0.11	<0.18	0.05	–	–	–	–
COC(=O)N[C@H](C(=O)N[C@@H](Cc1ccccc1)[C@@H](O)CN(Cc1ccc(-c2ccccn2)cc1)NC(=O)[C@@H](NC(=O)OC)C(C)(C)C)C(C)(C)C [atazanavir, methyl N-[(2S)-1-[2-[(2S,3S)-2-hydroxy-3-[[(2S)-2-(methoxycarbonylamino)-3,3-dimethylbutanoyl]amino]-4-phenylbutyl]-2-[(4-pyridin-2-ylphenyl)methyl]hydrazinyl]-3,3-dimethyl-1-oxobutan-2-yl]carbamate, reference compound]	–	1.3	–	–	0.87	–	45	0.37	–	–	–	–	25	3.1	75	EC50 ([6]; high resolution assay, 40 data points, MT-4 cells, read-out: EC50): 9.7 nM; Ki [7]: 0.035 nM; DOG IV CL [1, 9]: 16.7 mL/min/kg; DOG PO F ([1]; male beagle dogs, oral gavage, PO dose 10 mg/kg): 48%; Vd ([1]; male, beagle, dog, plasma, iv): 0.9 L/kg; RAT PO F ([2]; male, SD, rat, in vivo, po, 5 mg/kg): 38%; Dog. Pred. Cl. ([4]; dog liver microsomes 0.5 mg/mL, 1 uM compound, NADPH): 1.4 L/H/kg; Human Pred Cl. ([4]; human liver microsomes 0.5 mg/mL, 1 uM compound, NADPH): 1.07 L/H/kg; Rat. Pred. Cl. ([4]; rat liver microsomes 0.5 mg/mL, 1 uM compound, NADPH): 3.7 L/H/kg
CC(C)CN(C[C@@H](O)[C@H](Cc1ccccc1)NC(=O)O[C@H]1CO[C@H]2OCC[C@H]21)S(=O)(=O)c1ccc(N)cc1 [darunavir, [(3aS,4R,6aR)-2,3,3a,4,5,6a-hexahydrofuro[2,3-b]furan-4-yl] N-[(2S,3R)-4-[(4-aminophenyl)sulfonyl-(2-methylpropyl)amino]-3-hydroxy-1-phenylbutan-2-yl]carbamate, reference compound]	–	–	0.87	–	0.73	–	–	–	–	–	–	–	19.9	2.9	42	EC50 [6]: 7.2 nM; DOG PO F ([1]; male beagle dogs, oral gavage, PO dose 2 mg/kg): 38%; RAT PO F ([2]; male SD rats, oral gavage, PO dose 2.0 mg/kg): 24%
